# Experimental data as given in patent publication US9156845B2, “4-(substituted amino)-7H-pyrrolo[2,3-d] pyrimidines as LRRK2 inhibitors” (Pfizer Inc., priority 2012, dated 2015).
# Experiments:
# [1] = molecular target: GST-tagged truncated LRRK2 (Homo sapiens (Human), UniProt Q5S007); assay: LRRK2 Lantha Screen kinase assay; assay type: biochemical; conditions: geometric mean of 2-5 determinations unless otherwise indicated (a: >=6 determinations; b: single determination); read-out: LRRK2 WT IC50
# [2] = molecular target: BTK (Homo sapiens (Human), UniProt Q06187); assay: ActivX kinase probe assay (human PBMC); assay type: binding; conditions: BTK, read-out: percent inhibition
# [3] = molecular target: CaMK2g (Homo sapiens (Human), UniProt Q13555); assay: ActivX kinase probe assay (human PBMC); assay type: binding; conditions: CaMK2g, read-out: percent inhibition
# [4] = test system: CDK11, CDK8; assay: ActivX kinase probe assay (human PBMC); assay type: binding
# [5] = molecular target: CDK5 (Homo sapiens (Human), UniProt Q00535); assay: ActivX kinase probe assay (human PBMC); assay type: binding; conditions: CDK5, read-out: percent inhibition
# [6] = molecular target: DNAPK (Homo sapiens (Human), UniProt P78527); assay: ActivX kinase probe assay (human PBMC); assay type: binding; conditions: DNAPK, read-out: percent inhibition
# [7] = molecular target: eEF2K (Homo sapiens (Human), UniProt O00418); assay: ActivX kinase probe assay (human PBMC); assay type: binding; conditions: eEF2K, read-out: percent inhibition
# [8] = molecular target: EphA1 (Homo sapiens (Human), UniProt P21709); assay: ActivX kinase probe assay (human PBMC); assay type: binding; conditions: EphA1, read-out: percent inhibition
# [9] = molecular target: GCK (Homo sapiens (Human), UniProt Q12851); assay: ActivX kinase probe assay (human PBMC); assay type: binding; conditions: GCK, read-out: percent inhibition
# [10] = molecular target: IKKe (Homo sapiens (Human), UniProt Q14164); assay: ActivX kinase probe assay (human PBMC); assay type: binding; conditions: IKKe, read-out: percent inhibition
# [11] = molecular target: IRAK3 (Homo sapiens (Human), UniProt Q9Y616); assay: ActivX kinase probe assay (human PBMC); assay type: binding; conditions: IRAK3, read-out: percent inhibition
# [12] = molecular target: JAK3 domain2 (Homo sapiens (Human), UniProt P52333); assay: ActivX kinase probe assay (human PBMC); assay type: binding; conditions: JAK3 domain2, read-out: percent inhibition
# [13] = test system: JNK1, JNK2, JNK3; assay: ActivX kinase probe assay (human PBMC); assay type: binding
# [14] = molecular target: LATS1 (Homo sapiens (Human), UniProt O95835); assay: ActivX kinase probe assay (human PBMC); assay type: binding; conditions: LATS1, read-out: percent inhibition
# [15] = molecular target: LATS2 (Homo sapiens (Human), UniProt Q9NRM7); assay: ActivX kinase probe assay (human PBMC); assay type: binding; conditions: LATS2, read-out: percent inhibition
# [16] = molecular target: LOK (Homo sapiens (Human), UniProt O94804); assay: ActivX kinase probe assay (human PBMC); assay type: binding; conditions: LOK, read-out: percent inhibition
# [17] = test system: MAP2K1, MAP2K2; assay: ActivX kinase probe assay (human PBMC); assay type: binding
# [18] = molecular target: MAP2K3 (Homo sapiens (Human), UniProt P46734); assay: ActivX kinase probe assay (human PBMC); assay type: binding; conditions: MAP2K3, read-out: percent inhibition
# [19] = molecular target: MAP3K1 (Homo sapiens (Human), UniProt Q13233); assay: ActivX kinase probe assay (human PBMC); assay type: binding; conditions: MAP3K1, read-out: percent inhibition
# [20] = molecular target: MAP3K4 (Homo sapiens (Human), UniProt Q9Y6R4); assay: ActivX kinase probe assay (human PBMC); assay type: binding; conditions: MAP3K4, read-out: percent inhibition
# [21] = molecular target: MAP3K5 (Homo sapiens (Human), UniProt Q99683); assay: ActivX kinase probe assay (human PBMC); assay type: binding; conditions: MAP3K5, read-out: percent inhibition
# [22] = molecular target: MARK2 (Homo sapiens (Human), UniProt Q7KZI7); assay: ActivX kinase probe assay (human PBMC); assay type: binding; conditions: MARK2, read-out: percent inhibition
# [23] = molecular target: NEK1 (Homo sapiens (Human), UniProt Q96PY6); assay: ActivX kinase probe assay (human PBMC); assay type: binding; conditions: NEK1, read-out: percent inhibition
# [24] = molecular target: NEK7 (Homo sapiens (Human), UniProt Q8TDX7); assay: ActivX kinase probe assay (human PBMC); assay type: binding; conditions: NEK7, read-out: percent inhibition
# [25] = molecular target: p38a (Homo sapiens (Human), UniProt Q16539); assay: ActivX kinase probe assay (human PBMC); assay type: binding; conditions: p38a, read-out: percent inhibition
# [26] = molecular target: PI4KB (Homo sapiens (Human), UniProt Q9UBF8); assay: ActivX kinase probe assay (human PBMC); assay type: binding; conditions: PI4KB, read-out: percent inhibition
# [27] = molecular target: PIK3C3 (Homo sapiens (Human), UniProt Q8NEB9); assay: ActivX kinase probe assay (human PBMC); assay type: binding; conditions: PIK3C3, read-out: percent inhibition
# [28] = molecular target: PIK3CD (Homo sapiens (Human), UniProt O00329); assay: ActivX kinase probe assay (human PBMC); assay type: binding; conditions: PIK3CD, read-out: percent inhibition
# [29] = molecular target: PYK2 (Homo sapiens (Human), UniProt Q14289); assay: ActivX kinase probe assay (human PBMC); assay type: binding; conditions: PYK2, read-out: percent inhibition
# [30] = molecular target: SMG1 (Homo sapiens (Human), UniProt Q96Q15); assay: ActivX kinase probe assay (human PBMC); assay type: binding; conditions: SMG1, read-out: percent inhibition
# [31] = molecular target: STLK5 (Homo sapiens (Human), UniProt Q7RTN6); assay: ActivX kinase probe assay (human PBMC); assay type: binding; conditions: STLK5, read-out: percent inhibition
# [32] = molecular target: TBK1 (Homo sapiens (Human), UniProt Q9UHD2); assay: ActivX kinase probe assay (human PBMC); assay type: binding; conditions: TBK1, read-out: percent inhibition
# [33] = molecular target: TLK2 (Homo sapiens (Human), UniProt Q86UE8); assay: ActivX kinase probe assay (human PBMC); assay type: binding; conditions: TLK2, read-out: percent inhibition
# [34] = molecular target: ZAK (Homo sapiens (Human), UniProt Q9NYL2); assay: ActivX kinase probe assay (human PBMC); assay type: binding; conditions: ZAK, read-out: percent inhibition
# [35] = molecular target: ZC2/TNIK (Homo sapiens (Human), UniProt Q9UKE5); assay: ActivX kinase probe assay (human PBMC); assay type: binding; conditions: ZC2/TNIK, read-out: percent inhibition
# Chain of ZC2/TNIK (Q9UKE5 whole entry): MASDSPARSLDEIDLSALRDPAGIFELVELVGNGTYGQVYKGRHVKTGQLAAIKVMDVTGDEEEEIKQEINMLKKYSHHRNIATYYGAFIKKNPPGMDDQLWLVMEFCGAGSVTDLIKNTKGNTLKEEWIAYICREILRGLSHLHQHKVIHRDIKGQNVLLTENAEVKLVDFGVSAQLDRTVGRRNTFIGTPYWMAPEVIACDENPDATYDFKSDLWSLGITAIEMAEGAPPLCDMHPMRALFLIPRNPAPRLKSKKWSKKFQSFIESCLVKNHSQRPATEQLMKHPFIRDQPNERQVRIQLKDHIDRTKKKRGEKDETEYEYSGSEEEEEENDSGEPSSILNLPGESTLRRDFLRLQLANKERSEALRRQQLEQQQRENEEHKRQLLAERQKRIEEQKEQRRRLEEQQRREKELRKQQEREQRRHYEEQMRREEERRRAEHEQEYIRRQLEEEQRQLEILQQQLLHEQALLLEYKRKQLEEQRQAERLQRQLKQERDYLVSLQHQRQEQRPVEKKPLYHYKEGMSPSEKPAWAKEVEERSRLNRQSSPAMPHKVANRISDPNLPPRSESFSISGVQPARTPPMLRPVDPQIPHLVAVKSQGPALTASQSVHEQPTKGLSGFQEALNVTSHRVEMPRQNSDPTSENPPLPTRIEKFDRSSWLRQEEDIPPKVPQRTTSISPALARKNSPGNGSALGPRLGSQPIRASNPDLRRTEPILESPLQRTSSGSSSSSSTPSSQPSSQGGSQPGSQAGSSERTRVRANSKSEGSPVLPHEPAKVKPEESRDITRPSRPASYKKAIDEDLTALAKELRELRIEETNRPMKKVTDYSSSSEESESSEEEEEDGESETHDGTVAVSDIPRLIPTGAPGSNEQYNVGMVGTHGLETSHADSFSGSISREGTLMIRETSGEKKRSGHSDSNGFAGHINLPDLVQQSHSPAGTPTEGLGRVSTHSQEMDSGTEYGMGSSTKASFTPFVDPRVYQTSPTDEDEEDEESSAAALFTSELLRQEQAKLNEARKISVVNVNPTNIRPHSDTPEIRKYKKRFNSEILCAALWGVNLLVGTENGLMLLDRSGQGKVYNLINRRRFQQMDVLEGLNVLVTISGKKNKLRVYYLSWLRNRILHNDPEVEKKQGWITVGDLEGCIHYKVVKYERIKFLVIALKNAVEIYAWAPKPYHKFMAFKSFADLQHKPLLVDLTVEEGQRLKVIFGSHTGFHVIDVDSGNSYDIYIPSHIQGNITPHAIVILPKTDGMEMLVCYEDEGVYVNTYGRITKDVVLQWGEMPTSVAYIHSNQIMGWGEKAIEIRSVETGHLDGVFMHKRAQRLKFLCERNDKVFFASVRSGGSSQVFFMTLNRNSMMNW
# Chain of NEK7 (Q8TDX7 whole entry): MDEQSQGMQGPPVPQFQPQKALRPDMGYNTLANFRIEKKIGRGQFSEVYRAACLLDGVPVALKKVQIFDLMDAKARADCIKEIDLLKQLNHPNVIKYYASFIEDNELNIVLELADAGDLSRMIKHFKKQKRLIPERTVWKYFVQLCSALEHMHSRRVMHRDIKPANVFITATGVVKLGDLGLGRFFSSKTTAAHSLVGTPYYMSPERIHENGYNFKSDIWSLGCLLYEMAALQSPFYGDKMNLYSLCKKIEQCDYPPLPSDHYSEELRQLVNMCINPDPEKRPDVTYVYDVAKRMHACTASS
# Chain of IKKe (Q14164 whole entry): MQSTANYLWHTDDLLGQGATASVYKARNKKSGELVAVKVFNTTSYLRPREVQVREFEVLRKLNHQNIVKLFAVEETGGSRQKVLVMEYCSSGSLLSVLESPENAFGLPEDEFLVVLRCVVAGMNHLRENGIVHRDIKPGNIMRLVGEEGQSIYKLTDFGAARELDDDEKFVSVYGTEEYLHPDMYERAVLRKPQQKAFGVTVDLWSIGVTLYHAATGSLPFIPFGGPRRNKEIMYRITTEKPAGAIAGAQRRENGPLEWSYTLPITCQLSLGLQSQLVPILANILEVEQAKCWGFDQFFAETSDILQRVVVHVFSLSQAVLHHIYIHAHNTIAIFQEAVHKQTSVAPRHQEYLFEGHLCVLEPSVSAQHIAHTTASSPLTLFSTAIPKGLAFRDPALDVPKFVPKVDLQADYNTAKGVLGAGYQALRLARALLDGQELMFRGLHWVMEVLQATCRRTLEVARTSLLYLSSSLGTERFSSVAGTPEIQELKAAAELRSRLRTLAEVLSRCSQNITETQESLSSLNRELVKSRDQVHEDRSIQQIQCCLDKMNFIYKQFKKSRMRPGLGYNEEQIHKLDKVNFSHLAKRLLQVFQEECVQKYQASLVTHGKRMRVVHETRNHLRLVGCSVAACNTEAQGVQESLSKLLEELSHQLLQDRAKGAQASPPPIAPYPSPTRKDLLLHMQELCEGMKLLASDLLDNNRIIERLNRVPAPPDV
# Chain of JAK3 domain2 (P52333 whole entry, the tested form may be a part): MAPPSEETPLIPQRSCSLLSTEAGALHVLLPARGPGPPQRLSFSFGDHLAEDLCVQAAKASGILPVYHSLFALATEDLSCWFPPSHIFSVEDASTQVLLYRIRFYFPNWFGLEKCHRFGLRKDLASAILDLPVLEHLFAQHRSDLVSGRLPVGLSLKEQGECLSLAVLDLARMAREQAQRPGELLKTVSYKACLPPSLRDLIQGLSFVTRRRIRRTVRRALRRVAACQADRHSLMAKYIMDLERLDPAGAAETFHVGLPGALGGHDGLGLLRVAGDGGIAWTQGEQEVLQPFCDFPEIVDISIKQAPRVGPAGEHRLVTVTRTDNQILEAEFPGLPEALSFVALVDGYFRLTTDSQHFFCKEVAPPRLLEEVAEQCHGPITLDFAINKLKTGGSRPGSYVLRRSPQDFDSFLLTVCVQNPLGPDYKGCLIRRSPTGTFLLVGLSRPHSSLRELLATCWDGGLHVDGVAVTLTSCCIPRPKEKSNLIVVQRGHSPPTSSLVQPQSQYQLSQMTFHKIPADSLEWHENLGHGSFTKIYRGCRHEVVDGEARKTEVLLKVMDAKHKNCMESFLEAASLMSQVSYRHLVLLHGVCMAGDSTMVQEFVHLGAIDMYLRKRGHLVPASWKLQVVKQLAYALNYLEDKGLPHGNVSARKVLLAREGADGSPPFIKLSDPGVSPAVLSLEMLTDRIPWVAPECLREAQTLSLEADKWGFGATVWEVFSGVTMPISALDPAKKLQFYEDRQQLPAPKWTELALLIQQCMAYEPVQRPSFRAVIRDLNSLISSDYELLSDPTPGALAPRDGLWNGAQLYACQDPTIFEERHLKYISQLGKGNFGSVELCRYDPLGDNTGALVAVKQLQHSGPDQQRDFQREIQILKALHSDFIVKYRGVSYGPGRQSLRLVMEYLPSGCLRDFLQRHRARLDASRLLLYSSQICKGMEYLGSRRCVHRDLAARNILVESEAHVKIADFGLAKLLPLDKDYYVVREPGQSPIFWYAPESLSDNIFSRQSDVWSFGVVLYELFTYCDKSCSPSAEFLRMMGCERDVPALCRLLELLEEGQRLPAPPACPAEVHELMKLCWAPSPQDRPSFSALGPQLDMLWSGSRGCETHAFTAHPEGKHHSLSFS
# Chain of BTK (Q06187 whole entry): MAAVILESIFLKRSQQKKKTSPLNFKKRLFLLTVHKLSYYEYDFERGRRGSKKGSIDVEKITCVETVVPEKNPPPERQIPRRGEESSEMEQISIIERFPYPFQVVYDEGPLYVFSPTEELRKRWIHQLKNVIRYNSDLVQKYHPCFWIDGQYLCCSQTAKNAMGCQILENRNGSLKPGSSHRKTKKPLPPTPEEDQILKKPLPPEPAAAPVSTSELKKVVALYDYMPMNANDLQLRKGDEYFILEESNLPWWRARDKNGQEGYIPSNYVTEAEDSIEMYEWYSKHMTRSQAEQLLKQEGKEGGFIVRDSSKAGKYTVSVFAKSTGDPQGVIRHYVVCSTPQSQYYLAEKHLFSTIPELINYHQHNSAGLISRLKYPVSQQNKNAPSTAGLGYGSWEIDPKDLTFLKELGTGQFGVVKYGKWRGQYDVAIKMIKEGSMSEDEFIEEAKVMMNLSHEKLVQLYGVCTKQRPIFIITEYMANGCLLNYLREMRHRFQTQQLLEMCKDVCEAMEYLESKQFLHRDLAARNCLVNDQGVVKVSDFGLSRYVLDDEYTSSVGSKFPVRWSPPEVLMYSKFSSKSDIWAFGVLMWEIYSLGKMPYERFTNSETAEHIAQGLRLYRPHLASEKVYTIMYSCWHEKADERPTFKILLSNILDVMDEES
# Chain of IRAK3 (Q9Y616 whole entry, the tested form may be a part): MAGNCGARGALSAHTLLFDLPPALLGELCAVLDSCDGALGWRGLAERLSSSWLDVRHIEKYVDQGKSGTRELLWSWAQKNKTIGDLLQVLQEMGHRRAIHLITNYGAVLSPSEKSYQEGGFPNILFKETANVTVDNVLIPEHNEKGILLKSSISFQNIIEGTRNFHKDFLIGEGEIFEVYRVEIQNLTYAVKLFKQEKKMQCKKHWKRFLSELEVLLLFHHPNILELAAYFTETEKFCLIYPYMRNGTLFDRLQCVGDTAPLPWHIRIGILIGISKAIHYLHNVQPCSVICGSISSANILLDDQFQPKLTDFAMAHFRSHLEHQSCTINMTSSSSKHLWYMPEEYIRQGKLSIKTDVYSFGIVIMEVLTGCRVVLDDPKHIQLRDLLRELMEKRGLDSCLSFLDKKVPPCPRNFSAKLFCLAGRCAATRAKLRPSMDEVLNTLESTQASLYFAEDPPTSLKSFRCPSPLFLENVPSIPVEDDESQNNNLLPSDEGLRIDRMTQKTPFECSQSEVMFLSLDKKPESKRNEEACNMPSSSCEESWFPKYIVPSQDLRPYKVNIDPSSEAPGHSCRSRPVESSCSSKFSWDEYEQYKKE
# Chain of CDK5 (Q00535 whole entry): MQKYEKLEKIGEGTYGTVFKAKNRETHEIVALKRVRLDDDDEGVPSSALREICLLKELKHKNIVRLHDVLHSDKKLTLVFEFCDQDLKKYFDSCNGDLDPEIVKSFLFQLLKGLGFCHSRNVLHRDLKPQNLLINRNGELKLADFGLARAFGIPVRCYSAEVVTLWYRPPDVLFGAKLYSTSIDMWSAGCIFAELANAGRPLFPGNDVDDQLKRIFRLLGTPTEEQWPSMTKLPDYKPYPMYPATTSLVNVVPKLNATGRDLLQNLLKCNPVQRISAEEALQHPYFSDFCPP
compound,measurement,setting,value
"Cn1cc(-c2c[nH]c3ncnc(N4CCOCC4)c23)cn1 [Example 1, 5-(1-Methyl-1H-pyrazol-4-yl)-4-(morpholin-4-yl)-7H-pyrrolo[2,3-d]pyrimidine]",IC50,[1],0.013 µM
same,inhibition at 0.1 µM,[2]; 0.1 μM,8.7%
same,inhibition at 1 µM,[2]; 1 μM,3.7%
same,inhibition at 0.1 µM,[3]; 0.1 μM,-16.9%
same,inhibition at 1 µM,[3]; 1 μM,-15.5%
same,percent inhibition,[4]; 0.1 μM,4.4%
same,percent inhibition,[4]; 1 μM,2.4%
same,inhibition at 0.1 µM,[5]; 0.1 μM,-6.5%
same,inhibition at 1 µM,[5]; 1 μM,-35.1%
same,inhibition at 0.1 µM,[6]; 0.1 μM,-4.4%
same,inhibition at 1 µM,[6]; 1 μM,-30%
same,inhibition at 0.1 µM,[7]; 0.1 μM,-9.6%
same,inhibition at 1 µM,[7]; 1 μM,-6.5%
same,inhibition at 0.1 µM,[8]; 0.1 μM,-9.5%
same,inhibition at 1 µM,[8]; 1 μM,19.6%
same,inhibition at 0.1 µM,[9]; 0.1 μM,4.4%
same,inhibition at 1 µM,[9]; 1 μM,-6.7%
same,inhibition at 0.1 µM,[10]; 0.1 μM,2.6%
same,inhibition at 1 µM,[10]; 1 μM,17.7%
same,inhibition at 0.1 µM,[11]; 0.1 μM,30.1%
same,inhibition at 1 µM,[11]; 1 μM,68.7%
same,inhibition at 0.1 µM,[12]; 0.1 μM,2.7%
same,inhibition at 1 µM,[12]; 1 μM,-5.2%
same,percent inhibition,[13]; 0.1 μM,7.1%
same,percent inhibition,[13]; 1 μM,7.7%
same,inhibition at 0.1 µM,[14]; 0.1 μM,4.2%
same,inhibition at 1 µM,[14]; 1 μM,-16.2%
same,inhibition at 0.1 µM,[15]; 0.1 μM,21.2%
same,inhibition at 1 µM,[15]; 1 μM,11%
same,inhibition at 0.1 µM,[16]; 0.1 μM,5.7%
same,inhibition at 1 µM,[16]; 1 μM,22.6%
same,percent inhibition,[17]; 0.1 μM,1%
same,percent inhibition,[17]; 1 μM,−2.2%
same,inhibition at 0.1 µM,[18]; 0.1 μM,14.4%
same,inhibition at 1 µM,[18]; 1 μM,-9%
same,inhibition at 0.1 µM,[19]; 0.1 μM,-9.4%
same,inhibition at 1 µM,[19]; 1 μM,11.9%
same,inhibition at 0.1 µM,[20]; 0.1 μM,-14%
same,inhibition at 1 µM,[20]; 1 μM,6.9%
same,inhibition at 0.1 µM,[21]; 0.1 μM,6.2%
same,inhibition at 1 µM,[21]; 1 μM,2.1%
same,inhibition at 0.1 µM,[22]; 0.1 μM,10.1%
same,inhibition at 1 µM,[22]; 1 μM,41.6%
same,inhibition at 0.1 µM,[23]; 0.1 μM,7%
same,inhibition at 1 µM,[23]; 1 μM,-10.1%
same,inhibition at 0.1 µM,[24]; 0.1 μM,-0.6%
same,inhibition at 1 µM,[24]; 1 μM,-18.8%
same,inhibition at 0.1 µM,[25]; 0.1 μM,-23.5%
same,inhibition at 1 µM,[25]; 1 μM,-19.8%
same,inhibition at 0.1 µM,[26]; 0.1 μM,34%
same,inhibition at 1 µM,[26]; 1 μM,16.1%
same,inhibition at 0.1 µM,[27]; 0.1 μM,23.3%
same,inhibition at 1 µM,[27]; 1 μM,4.8%
same,inhibition at 0.1 µM,[28]; 0.1 μM,-102%
same,inhibition at 1 µM,[28]; 1 μM,-65.4%
same,inhibition at 0.1 µM,[29]; 0.1 μM,5.9%
same,inhibition at 1 µM,[29]; 1 μM,19.5%
same,inhibition at 0.1 µM,[30]; 0.1 μM,-1.3%
same,inhibition at 1 µM,[30]; 1 μM,-19.2%
same,inhibition at 0.1 µM,[31]; 0.1 μM,-1.5%
same,inhibition at 1 µM,[31]; 1 μM,-46.5%
same,inhibition at 0.1 µM,[32]; 0.1 μM,0.1%
same,inhibition at 1 µM,[32]; 1 μM,13.4%
same,inhibition at 0.1 µM,[33]; 0.1 μM,-5.8%
same,inhibition at 1 µM,[33]; 1 μM,-21.1%
same,inhibition at 0.1 µM,[34]; 0.1 μM,15%
same,inhibition at 1 µM,[34]; 1 μM,23.1%
same,inhibition at 0.1 µM,[35]; 0.1 μM,-10.6%
same,inhibition at 1 µM,[35]; 1 μM,31.2%
